From the NIST ThermoML archive (doi:10.1016/j.fluid.2008.03.004)

Test: xn = mol fraction of the nth substance listed
Settings: 101 kPa, Liquid; for speed of sound: Sing-around technique in a fixed-path interferometer

Cc1cccc(C)c1 [1,3-dimethylbenzene] + COC(C)(C)C
Settings	mass density, 305.65 K [kg/m3]	mass density, 308.15 K [kg/m3]	mass density, 310.65 K [kg/m3]	mass density, 313.15 K [kg/m3]	speed of sound, 308.15 K [m/s]	speed of sound, 310.65 K [m/s]	speed of sound, 313.15 K [m/s]	speed of sound, 315.65 K [m/s]
x2 = 0	853.441	851.282	849.122	846.958	1279.8	1269.6	1259.5	1249.3
x2 = 0.047	848.1	845.927	843.75	841.566	1267.6	1257.3	1247.2	1237
x2 = 0.115	840.172	837.974	835.768	833.56	1249.3	1239.1	1228.8	1218.6
x2 = 0.212	828.758	826.519	824.276	822.027	1222.5	1212.1	1201.8	1191.5
x2 = 0.304	817.815	815.538	813.255	810.966	1197.2	1186.8	1176.3	1165.9
x2 = 0.399	806.139	803.818	801.494	799.161	1170.3	1159.8	1149.3	1138.8
x2 = 0.5	793.525	791.157	788.781	786.398	1141.6	1130.9	1120.3	–
x2 = 0.601	780.692	778.273	775.847	773.412	1112	1101.1	1090.2	–
x2 = 0.651	774.141	771.692	769.237	766.771	1096.4	1085.5	1074.7	–
x2 = 0.794	755.009	752.457	749.912	747.356	1053.3	1042.3	1031.2	–
x2 = 0.898	740.889	738.286	735.671	733.042	1021.4	1010.1	998.84	–
x2 = 0.954	733.146	730.505	727.852	725.183	1004.8	993.4	981.87	–
